Results on 25 compounds are retold here after ChEMBL document CHEMBL3865786, “Scaffold-hopping of bioactive flavonoids: Discovery of aryl-pyridopyrimidinones as potent anticancer agents that inhibit catalytic role of topoisomerase IIα” (Eur J Med Chem, 2016).

Structures are written as SMILES. Calls of active or inactive are those of the source. The calls are words filed in the database; no cut-off is given here.

Series [1] is described as follows: Cytotoxicity against African green monkey Vero cells assessed as reduction in cell viability after 48 hrs by MTT assay. It is filed as toxicity, cell-based. As to conditions: chlorocebus sabaeus; for CC50 at 48 h: Vero cells, read-out: LC50; for Activity: vero, 48 h. A general note: Tetrazolium dyes change colour on reduction, which living cells bring about.
For series [2], the target named is DNA topoisomerase 2-alpha (Homo sapiens) (UniProt P11388). As to the kind of experiment: Inhibition of human DNA topoisomerase 2alpha-mediated decatenation of kinetoplast DNA at 100 uM after 30 mins by agarose gel electrophoresis.
DNA topoisomerase 2-alpha (Homo sapiens), sequence (P11388 whole entry): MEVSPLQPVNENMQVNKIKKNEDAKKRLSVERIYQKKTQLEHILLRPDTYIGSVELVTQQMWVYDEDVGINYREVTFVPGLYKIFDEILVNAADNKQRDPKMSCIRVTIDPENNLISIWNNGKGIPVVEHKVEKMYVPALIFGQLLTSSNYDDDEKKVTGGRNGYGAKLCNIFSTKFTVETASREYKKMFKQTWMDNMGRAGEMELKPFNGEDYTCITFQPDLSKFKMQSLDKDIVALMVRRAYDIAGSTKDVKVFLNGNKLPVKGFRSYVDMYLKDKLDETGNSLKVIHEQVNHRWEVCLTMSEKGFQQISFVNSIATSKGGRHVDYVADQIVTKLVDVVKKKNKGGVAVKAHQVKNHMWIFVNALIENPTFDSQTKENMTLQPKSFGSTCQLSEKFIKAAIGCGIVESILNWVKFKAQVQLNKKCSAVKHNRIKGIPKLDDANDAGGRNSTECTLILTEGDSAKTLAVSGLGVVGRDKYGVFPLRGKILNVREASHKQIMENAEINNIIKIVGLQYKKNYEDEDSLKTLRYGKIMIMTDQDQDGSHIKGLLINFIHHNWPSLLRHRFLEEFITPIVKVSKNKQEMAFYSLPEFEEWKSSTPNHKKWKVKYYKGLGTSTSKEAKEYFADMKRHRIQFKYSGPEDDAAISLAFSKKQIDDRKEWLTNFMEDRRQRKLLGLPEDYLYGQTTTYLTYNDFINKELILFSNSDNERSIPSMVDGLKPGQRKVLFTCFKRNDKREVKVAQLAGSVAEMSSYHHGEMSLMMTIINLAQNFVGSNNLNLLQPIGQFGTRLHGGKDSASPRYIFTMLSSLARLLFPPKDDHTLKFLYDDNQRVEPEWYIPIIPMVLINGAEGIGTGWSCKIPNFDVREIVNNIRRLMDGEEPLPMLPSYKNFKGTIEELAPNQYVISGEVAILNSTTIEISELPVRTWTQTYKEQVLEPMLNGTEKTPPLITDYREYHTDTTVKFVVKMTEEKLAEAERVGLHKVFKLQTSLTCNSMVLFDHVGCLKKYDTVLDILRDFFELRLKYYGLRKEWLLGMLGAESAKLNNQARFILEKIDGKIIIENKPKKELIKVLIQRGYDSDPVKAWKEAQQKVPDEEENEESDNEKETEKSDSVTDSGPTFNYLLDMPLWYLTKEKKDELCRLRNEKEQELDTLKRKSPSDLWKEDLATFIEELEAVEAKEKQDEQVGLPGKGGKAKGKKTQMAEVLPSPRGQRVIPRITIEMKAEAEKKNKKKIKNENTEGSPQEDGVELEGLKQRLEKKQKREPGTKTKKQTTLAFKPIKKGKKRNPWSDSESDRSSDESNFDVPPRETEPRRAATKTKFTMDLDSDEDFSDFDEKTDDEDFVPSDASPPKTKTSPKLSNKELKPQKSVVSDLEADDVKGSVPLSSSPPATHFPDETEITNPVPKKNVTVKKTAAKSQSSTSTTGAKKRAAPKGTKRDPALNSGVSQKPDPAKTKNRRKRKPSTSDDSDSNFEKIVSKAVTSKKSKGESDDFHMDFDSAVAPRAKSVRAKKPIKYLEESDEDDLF
The nature of series [3]: (§1) Anticlonogenic activity against HEK293 cells assessed as inhibition of colony formation incubated for 48 hrs measured after 6 days by crystal violet staining based assay. It is filed as functional. As to conditions: Homo sapiens, read-out: LC50 (the source's name).
Series [4] can be described thus: (§2) Cytotoxicity against HEK293 cells assessed as reduction in cell viability after 48 hrs by MTT assay. It is filed as functional. The following applies: Homo sapiens, HEK293, 48 h; read-out: LC50 (the source's name).
Series [5] can be described thus: Cytotoxicity against human HeLa cells assessed as reduction in cell viability after 48 hrs by MTT assay. It is filed as functional, cell-based.
The nature of series [6]: Cytotoxicity against human MCF7 cells assessed as reduction in cell viability after 48 hrs by MTT assay. As to conditions: MCF7, 48 h. Format: functional, cell-based.
Series [7] is described as follows: Cytotoxicity against human H357 cells assessed as reduction in cell viability after 48 hrs by MTT assay. Format: functional, cell-based. The following applies: H357, 48 h.
Series [8] can be described thus: Cytotoxicity against human A549 cells assessed as reduction in cell viability after 48 hrs by MTT assay. Format: functional, cell-based. As to conditions: A549, 48 h.
For series [9], the system named is HEK293. The series is described as §1. Format: functional. The following applies: Homo sapiens.
Series [10] has as its system HEK293. The description is as §2. The following applies: Homo sapiens. Format: functional.
A short description of series [11]: Cytotoxicity against human HCT116 cells assessed as reduction in cell viability after 48 hrs by MTT assay. It is filed as functional, cell-based. As to conditions: HCT-116, 48 h.
The test system of series [12] is HEK293. As to the kind of experiment: Potency index, ratio of etoposide LC50 to compound LC50 for anticlonogenic activity in HEK293 cells. Format: functional, Homo sapiens.
Series [13] can be described thus: Binding affinity to DNA (unknown origin) assessed as hypochromism after 1 hr by UV-Vis absorption spectrophotometric analysis.
The next series is filed under the species Bos taurus. As to the kind of experiment: Binding affinity to calf thymus DNA assessed as DNA intercalation by measuring conformational changes at 100 uM after 2 hrs by CD spectroscopic analysis.

As to `COc1cc([C@@H]2c3cc4c(cc3[C@@H](O[C@@H]3O[C@@H]5CO[C@@H](C)O[C@H]5[C@H](O)[C@H]3O)[C@H]3COC(=O)[C@H]23)OCO4)cc(OC)c1O` [ETOPOSIDE], in [1], the CC50 at 48 h is 55 µM. Moreover, in [2], the “Topoisomerase 2-alpha inhibition (active/inactive)” value was “Active”. The CC50 amounted to 20 µM in [3] and 22 µM in [4].
On to `COc1cc(-c2cc(=O)c3ccccc3o2)cc(OC)c1OC`, for which, in series [1], the CC50 at 48 h was determined as 52 µM. In series [2], the “Topoisomerase 2-alpha inhibition (active/inactive)” value is “Active”. Besides, the CC50 in series [4] amounted to 12 µM.
In the case of `Cc1ccc(-c2cnc3ccccn3c2=O)cc1`, the IC50 is 3 µM in [5]; 4 µM in series [6]; 2.8 µM in series [7]; 2.5 µM in series [8]; 2.5 µM in [11]. In addition, the CC50 at 48 h in series [1] is 44 µM. Also, the Activity result (in series [1]; with HEK293 [10]) was “Dose-dependent effect” in each case. Besides, the “Topoisomerase 2-alpha inhibition (active/inactive)” value in series [2] was “Active”. Also, the inhibition entry with HEK293 [9] is “Dose-dependent effect”. In addition, the CC50 in [3] was 2.5 µM; in series [4] it was 3.5 µM. The RatioLC50 with HEK293 [12] is reported as 5 - 10.
`O=c1cc(-c2ccc(O)c(O)c2)nc2ccccn12`: in series [1], the CC50 at 48 h is 32 µM. Further, in series [2], the “Topoisomerase 2-alpha inhibition (active/inactive)” value is “Active”. Moreover, in series [4], the CC50 worked out at 13 µM.
Consider `O=c1c(-c2ccccc2)cnc2c(OCc3ccccc3)cccn12`, for which the IC50 was found to be 1.5 µM in series [5]; 2 µM in series [6]; 3 µM in [7]; 2 µM in [8]; 3 µM in series [11]. Also, the CC50 at 48 h in series [1] worked out at 60 µM. Besides, the Activity result (in [1]; in the series on HEK293 [10]) was “Dose-dependent effect” each time. In addition, in [2], the “Topoisomerase 2-alpha inhibition (active/inactive)” value is “Active”. Further, in the series on HEK293 [9], the inhibition entry is “Dose-dependent effect”. Moreover, the CC50 in series [3] was determined as 3.8 µM; in series [4], 3 µM. Further, the RatioLC50 in the series on HEK293 [12] is listed as 5 - 10.
Take `COc1cc(-c2cc(=O)n3ccccc3n2)cc(OC)c1OC`: the CC50 at 48 h in [1] came to 46 µM. Moreover, in series [2], the “Topoisomerase 2-alpha inhibition (active/inactive)” value was “Active”. In addition, in [4], the CC50 came to 9 µM. In series [13], the outcome was Active.
In the case of `Cc1ccc(-c2coc3ccccc3c2=O)cc1`, the CC50 at 48 h in [1] is 48 µM. For the same compound, the “Topoisomerase 2-alpha inhibition (active/inactive)” value in series [2] was “Active”. Moreover, the CC50 in [4] came out at 8 µM.
For `COc1ccc(-c2cc(=O)n3ccccc3n2)cc1` the same measures were 60 µM, “Active” and 8 µM.
For `O=c1c(-c2cccc3ccccc23)coc2ccccc12` the same measures were 42 µM, “Active” and 12 µM.
With `O=c1c(-c2cc(O)cc(O)c2)cnc2ccccn12`, the IC50 in series [5] is 1.5 µM; in series [6], 2 µM; in [7], 3 µM; in [8], 2.8 µM; in [11], 3 µM. For the same compound, the CC50 at 48 h in series [1] came to 50 µM. Besides, the Activity result (in [1]; in the series with HEK293 [10]) was “Dose-dependent effect” throughout. In addition, the “Topoisomerase 2-alpha inhibition (active/inactive)” value in [2] was “Active”. For the same compound, the inhibition result in the series with HEK293 [9] was “Dose-dependent effect”. In addition, the values for the CC50 in series [3] and in [4] were 2.4 µM and 2 µM, respectively. In addition, in the series with HEK293 [12], the RatioLC50 is reported as 5 - 10.
Turning to `O=c1c(-c2ccc3c(c2)OCO3)cnc2ccccn12`, in series [1], the CC50 at 48 h is 48 µM. Also, the “Topoisomerase 2-alpha inhibition (active/inactive)” value in [2] was “Active”. The CC50 in series [4] is 15 µM.
Regarding `O=c1c(-c2cccc3ccccc23)cnc2ccccn12`, the CC50 at 48 h in series [1] was determined as 60 µM. Further, the “Topoisomerase 2-alpha inhibition (active/inactive)” value in series [2] was “Active”. Besides, the CC50 in series [4] worked out at 7 µM.
Regarding `CC[n+]1c(-c2ccccc2)c2cc(N)ccc2c2ccc(N)cc21`, the result in the series filed under Bos taurus was Active.
Regarding `COc1ccc(-c2cnc3ccccn3c2=O)cc1`, the CC50 at 48 h in [1] is 38 µM. Besides, the “Topoisomerase 2-alpha inhibition (active/inactive)” value in series [2] is “Active”. Also, in series [4], the CC50 amounted to 19 µM.
Consider `O=c1c(-c2ccc(O)c(O)c2)cnc2ccccn12`, for which the CC50 at 48 h in [1] was 38 µM. For the same compound, the “Topoisomerase 2-alpha inhibition (active/inactive)” value in [2] was “Active”. For the same compound, in series [4], the CC50 is 9 µM.
For `COc1ccc(-c2cc(=O)n3ccccc3n2)cc1OC` the same measures were 50 µM, “Active” and 17 µM.
For the compound `COc1cccc(-c2cnc3ccccn3c2=O)c1`, the CC50 at 48 h in [1] is 46 µM. The “Topoisomerase 2-alpha inhibition (active/inactive)” value in series [2] was “Active”. Also, the CC50 in [4] is 9 µM.
Consider `COc1cc(-c2cnc3ccccn3c2=O)cc(OC)c1OC`, for which the IC50 was determined as 2.8 µM in [5]; 3 µM in [6]; 3 µM in [7]; 2.1 µM in [8]; 3.2 µM in series [11]. The CC50 at 48 h in series [1] is 40 µM. Also, the Activity entry (in series [1]; with HEK293 [10]) was “Dose-dependent effect” throughout. The “Topoisomerase 2-alpha inhibition (active/inactive)” value in [2] was “Active”. Further, the inhibition entry in the series on HEK293 [9] was “Dose-dependent effect”. The CC50 in series [3] came to 1.8 µM; in [4] it was 3 µM. Further, in the series on HEK293 [12], the RatioLC50 is 5 - 10.
Consider `O=c1cc(-c2ccc3c(c2)OCO3)nc2ccccn12`, for which the CC50 at 48 h in [1] was found to be 52 µM. The “Topoisomerase 2-alpha inhibition (active/inactive)” value in series [2] is “Active”. Also, the CC50 in series [4] stood at 15.5 µM.
The matching figures for `O=c1c(-c2cccc(O)c2)cnc2ccccn12`: 52 µM, “Active” and 6 µM.
For `O=c1cc(-c2ccc3c(c2)OCO3)oc2ccccc12` the same measures were 48 µM, “Active” and 8 µM.
Turning to `O=Cc1ccc(-c2cc(=O)n3ccccc3n2)cc1`, the IC50 in series [5] worked out at 3 µM; in series [6], 2.5 µM; in series [7] it was 2.5 µM; in series [8], 2.4 µM; in series [11], 3.5 µM. In series [1], the CC50 at 48 h worked out at 48 µM. Further, the Activity result (in series [1]; in the series on HEK293 [10]) was “Dose-dependent effect” each time. In [2], the “Topoisomerase 2-alpha inhibition (active/inactive)” value was “Active”. Further, the inhibition entry with HEK293 [9] is “Dose-dependent effect”. The CC50 in series [3] was determined as 2.5 µM; in series [4], 3 µM. Also, the outcome in series [13] was Active. In the series on HEK293 [12], the RatioLC50 is 5 - 10.
As to `COc1cc(-c2coc3ccccc3c2=O)cc(OC)c1OC`, the CC50 at 48 h in series [1] was found to be 50 µM. The “Topoisomerase 2-alpha inhibition (active/inactive)” value in [2] was “Active”. In addition, the CC50 in series [4] was 10 µM.
The matching figures for `COc1ccc(-c2cc(=O)c3ccccc3o2)cc1` [4'-METHOXYFLAVONE]: 45 µM, “Active” and 8.5 µM.
For the compound `COc1ccc(-c2coc3ccccc3c2=O)cc1`, the CC50 at 48 h in series [1] was found to be 52 µM. The CC50 in series [4] worked out at 12 µM.

The term IC50 denotes the concentration needed to halve the response being measured.
